# Assay results: patent US10738053B2, “Bicyclic compounds as dual ATX/CA inhibitors” (Hoffmann-La Roche Inc., priority 2015, dated 2020)
# Tests used:
# human ATX = human ATX (Homo sapiens (Human), UniProt Q13822); assay: Human ATX enzyme inhibition assay (fluorescence quenching, MR121 substrate); assay type: biochemical; conditions: human His-tagged ATX 30 nM, MR121 substrate 1 μM
# Experimental: Production of Human Full Length ATX, with and without His Tag
# Autotaxin (ATX-ENPP2) cloning: cDNA was prepared from commercial human hematopoietic cells total RNA and used as template in overlapping PCR to generate a full length human ENPP2 ORF with or without a 3′-6× His tag. These full length inserts were cloned into the pcDNA3.1V5-His TOPO (Invitrogen) vector. The DNA sequences of several single clones were verified. The DNA from a correct full length clone was used to transfect Hek293 cells for verification of protein expression. The sequence of the encoded ENPP2 conforms to Swissprot entry Q13822, with or without the additional C-terminal 6× His tag.
# ATX Fermentation: Recombinant protein was produced by large-scale transient transfection in 20 L controlled stirred tank bioreactors (Sartorius). During cell growth and transfection, temperature, stirrer speed, pH and dissolved oxygen concentration were maintained at 37° C., 120 rpm, 7.1 and 30% DO, respectively. FreeStyle 293-F cells (Invitrogen) were cultivated in suspension in FreeStyle 293 medium (Invitrogen) and transfected at ca. 1-1.5×10E6 cells/mL with above plasmid DNAs using X-tremeGENE Ro-1539 (commercial product, Roche Diagnostics) as complexing agent. Cells were fed a concentrated nutrient solution (J Immunol Methods 194 (1996), 19, 1-199 (page 193)) and induced by sodium butyrate (2 mM) at 72 h post-transfection and harvested at 96 h post-transfection. Expression was analyzed by Western Blot, enzymatic assay and/or analytical IMAC chromatography. After cooling the cell suspension to 4° C. in a flow-through heat exchanger, cell separation and sterile filtration of supernatant was performed by filtration through Zeta Plus 60M02 E16 (Cuno) and Sartopore 2 XLG (Sartorius) filter units. The supernatant was stored at 4° C. prior to purification.
# ATX Purification: 20 liter of culture supernatant were conditioned for ultrafiltration by adding Brij 35 to a final concentration of 0.02% and by adjusting the pH to 7.0 using 1 M HCl. Then the supernatant was first microfiltred through a 0.2 µm Ultran-Pilot Open Channel PES filter (Whatman) and afterwards concentrated to 1 liter through an Ultran-Pilot Screen Channel PES filter with 30 kDa MWCO (Whatman). Prior to IMAC chromatography, NiSO4 was added to a final concentration of 1 mM. […] The column was washed stepwise with the same buffer containing 20 mM, 40 mM and 50 mM imidazole, respectively. The protein was subsequently eluted using a linear gradient to 0.5 M imidazole in 15 column volumes. ATX containing fractions were pooled and concentrated using an Amicon cell equipped with a 30 kDa PES filter membrane. […] Final yield of protein after purification was 5-10 mg ATX per liter of culture supernatant. The protein was stored at −80° C.
# Human ATX Enzyme Inhibition Assay
# Test compounds (10 mM stock in DMSO, 8 μL) were obtained in 384 well sample plates (Corning Costar #3655) and diluted with 8 μL DMSO. […] Then, 15 μL of 41.7 nM ATX solution was added (30 nM final concentration), mixed five times and then incubated for 15 minutes at 30° C. 10 μL of MR121 substrate solution was added (1 μM final concentration), mixed 30 times and then incubated for 15 minutes at 30° C.
# [1] = target: Human carbonic anhydrase II (hCA-II) (Homo sapiens (Human), UniProt P00918); assay: Human carbonic anhydrase-II inhibition assay (absorbance, 4-NPA substrate); assay type: biochemical; conditions: hCA II 8 nM, 4-NPA 2.5 mM, absorbance 340 nm; read-out: CA-II IC50
# Experimental: Human Carbonic Anhydrase-II Inhibition Assay
# Then 30 μL of 16 nM hCA II solution was added (8 nM final concentration), mixed five times. 30 μL of 4-NPA substrate solution was added (2.5 mM final concentration), mixed five times.
IC50 (human ATX) [nM],IC50 [1] [nM],Compound
8,5,"CO[C@]12CN(C(=O)OCc3ncc(C(F)(F)F)cc3NC(=O)C(C)(C)C)C[C@@H]1CN(C(=O)c1ccc(S(N)(=O)=O)cc1F)C2 (racemic) [Example 1.00, trans-5-(2-Fluoro-4-sulfamoyl-benzoyl)-3a-methoxy-hexahydro-pyrrolo[3,4-c]pyrrole-2-carboxylic acid 3-(2,2-dimethyl-propionylamino)-5-trifluoromethyl-pyridin-2-ylmethyl ester]"
6,–,"CO[C@]12CN(C(=O)OCc3ncc(C(F)(F)F)cc3NC(=O)C(C)(C)C)C[C@@H]1CN(C(=O)c1ccc(S(N)(=O)=O)cc1)C2 (racemic) [Example 1.03, trans-5-(4-sulfamoyl-benzoyl)-3a-methoxy-hexahydro-pyrrolo[3,4-c]pyrrole-2-carboxylic acid 3-(2,2-dimethyl-propionylamino)-5-trifluoromethyl-pyridin-2-ylmethyl ester]"
3,–,"NS(=O)(=O)c1ccc(C(=O)N2C[C@H]3CN(C(=O)OCc4ccc(OC(F)(F)F)cc4)C[C@]3(F)C2)cc1 (racemic) [Example 1.04, trans-5-(4-sulfamoyl-benzoyl)-3a-fluoro-hexahydro-pyrrolo[3,4-c]pyrrole-2-carboxylic acid 4-trifluoromethoxy-benzyl ester]"
20,–,"CO[C@]12CN(C(=O)OCc3ccc(OC(F)(F)F)cc3)C[C@@H]1CN(C(=O)c1ccc(S(N)(=O)=O)cc1)C2 (racemic) [Example 1.05, trans-5-(4-sulfamoyl-benzoyl)-3a-methoxy-hexahydro-pyrrolo[3,4-c]pyrrole-2-carboxylic acid 4-trifluoromethoxy-benzyl ester]"
6,–,"C[C@]12CN(C(=O)OCc3ccc(OC(F)(F)F)cc3)C[C@@H]1CN(C(=O)c1ccc(S(N)(=O)=O)cc1)C2 (racemic) [Example 1.06, trans-3a-methyl-5-(4-sulfamoyl-benzoyl)-hexahydro-pyrrolo[3,4-c]pyrrole-2-carboxylic acid 4-trifluoromethoxy-benzyl ester]"
10,8,"CO[C@]12CN(C(=O)CCc3ccc(OC(F)(F)F)cc3)C[C@@H]1CN(C(=O)c1ccc(S(N)(=O)=O)cc1F)C2 (relative stereo) [Example 1.01, trans-4-[3a-methoxy-2-[3-[4-(trifluoromethoxy)phenyl]propanoyl]-3,4,6,6a-tetrahydro-1H-pyrrolo[3,4-c]pyrrole-5-carbonyl]-3-fluorobenzenesulfonamide]"
6,10,"CO[C@@]12CN(C(=O)c3cc(OCC4CCOCC4)nc(C4CC4)c3)C[C@H]1CN(C(=O)c1ccc(S(N)(=O)=O)cc1F)C2 (relative stereo) [Example 1.02, trans-4-[5-[2-cyclopropyl-6-(oxan-4-ylmethoxy)pyridine-4-carbonyl]-3a-methoxy-3,4,6,6a-tetrahydro-1H-pyrrolo[3,4-c]pyrrole-2-carbonyl]-3-fluorobenzenesulfonamide]"
6,13,"CO[C@]12CN(C(=O)OCc3ncc(C(F)(F)F)cc3NC(=O)C(C)(C)C)C[C@@H]1CN(C(=O)c1ccc(S(N)(=O)=O)cn1)C2 (relative stereo) [Example 1.07, trans-5-(5-sulfamoylpyridine-2-carbonyl)-3a-methoxy-hexahydro-pyrrolo[3,4-c]pyrrole-2-carboxylic acid 3-(2,2-dimethyl-propionylamino)-5-trifluoromethyl-pyridin-2-ylmethyl ester]"
17,18,"CO[C@]12CN(C(=O)CCc3ccc(OC(F)(F)F)cc3)C[C@@H]1CN(C(=O)c1ccc(S(N)(=O)=O)cn1)C2 (relative stereo) [Example 1.08, trans-6-[3a-methoxy-2-[3-[4-(trifluoromethoxy)phenyl]propanoyl]-3,4,6,6a-tetrahydro-1H-pyrrolo[3,4-c]pyrrole-5-carbonyl]pyridine-3-sulfonamide]"
10,10,"CO[C@@]12CN(C(=O)c3cc(OCC4CCOCC4)nc(C4CC4)c3)C[C@H]1CN(C(=O)c1ccc(S(N)(=O)=O)cn1)C2 (relative stereo) [Example 1.09, trans-6-[5-[2-cyclopropyl-6-(oxan-4-ylmethoxy)pyridine-4-carbonyl]-3a-methoxy-3,4,6,6a-tetrahydro-1H-pyrrolo[3,4-c]pyrrole-2-carbonyl]pyridine-3-sulfonamide]"
7,6,"NS(=O)(=O)c1ccc(C(=O)N2C[C@H]3CN(C(=O)OCc4ccc(OC(F)(F)F)cc4)C[C@]3(F)C2)c(F)c1 (relative stereo) [Example 2.00, trans-5-(2-Fluoro-4-sulfamoyl-benzoyl)-3a-fluoro-hexahydro-pyrrolo[3,4-c]pyrrole-2-carboxylic acid 4-trifluoromethoxy-benzyl ester]"
5,9,"NS(=O)(=O)c1ccc(C(=O)N2C[C@H]3CN(C(=O)/C=C/c4ccc(OC(F)(F)F)cc4)C[C@]3(F)C2)c(F)c1 (relative stereo) [Example 3.00, trans-4-[3a-Fluoro-2-[(E)-3-[4-(trifluoromethoxy)phenyl]prop-2-enoyl]-3,4,6,6a-tetrahydro-1H-pyrrolo[3,4-c]pyrrole-5-carbonyl]-3-fluorobenzenesulfonamide]"
8,6,"NS(=O)(=O)c1ccc(C(=O)N2C[C@@H]3CN(C(=O)c4cc(OCC5CCOCC5)nc(C5CC5)c4)C[C@@]3(F)C2)c(F)c1 (relative stereo) [Example 3.02, trans-4-[5-[2-cyclopropyl-6-(oxan-4-ylmethoxy)pyridine-4-carbonyl]-3a-fluoro-3,4,6,6a-tetrahydro-1H-pyrrolo[3,4-c]pyrrole-2-carbonyl]-3-fluorobenzenesulfonamide]"
4,6,"NS(=O)(=O)c1ccc(C(=O)N2C[C@H]3CN(C(=O)CCc4ccc(OC(F)(F)F)cc4)C[C@]3(F)C2)c(F)c1 (relative stereo) [Example 3.03, trans-4-[3a-fluoro-2-[3-[4-(trifluoromethoxy)phenyl]propanoyl]-3,4,6,6a-tetrahydro-1H-pyrrolo[3,4-c]pyrrole-5-carbonyl]-3-fluorobenzenesulfonamide]"
13,18,"CO[C@@]12CN(C(=O)OCc3ccc(OC(F)(F)F)cc3)C[C@H]1CN(C(=O)c1ccc(S(N)(=O)=O)cc1)C2 (single isomer, unassigned) [Example 4.01, (−)-trans-5-(4-sulfamoyl-benzoyl)-3a-methoxy-hexahydro-pyrrolo[3,4-c]pyrrole-2-carboxylic acid 4-trifluoromethoxy-benzyl ester]"
8,10,"NS(=O)(=O)c1ccc(C(=O)N2C[C@@H]3CN(C(=O)OCc4ccc(OC(F)(F)F)cc4)C[C@@]3(F)C2)cc1 (single isomer, unassigned) [Example 4.02, (−)-trans-5-(4-sulfamoyl-benzoyl)-3a-fluoro-hexahydro-pyrrolo[3,4-c]pyrrole-2-carboxylic acid 4-trifluoromethoxy-benzyl ester]"
11,13,"CO[C@@]12CN(C(=O)OCc3ncc(C(F)(F)F)cc3NC(=O)C(C)(C)C)C[C@H]1CN(C(=O)c1ccc(S(N)(=O)=O)cc1)C2 (single isomer, unassigned) [Example 4.03, (−) trans-5-(4-sulfamoyl-benzoyl)-3a-methoxy-hexahydro-pyrrolo[3,4-c]pyrrole-2-carboxylic acid 3-(2,2-dimethyl-propionylamino)-5-trifluoromethyl-pyridin-2-ylmethyl ester]"
